This is an account of results in US20190031665A1, “DERIVATIVES OF PYRROLOIMIDAZOLE OR ANALOGUES THEREOF WHICH ARE USEFUL FOR THE TREATMENT OF INTER ALIA CANCER” (EMCURE PHARMACEUTICALS LIMITED, priority 2016, published 2019).

For assay [1], the target named is T1, human tryptophan 2,3-dioxygenase (hTDO) (Homo sapiens, UniProt P48775).
T1 construct: His tag (N); purchased BPS Bioscience, San Diego, Calif., USA; host or cells: E. coli
Briefly: In-vitro human tryptophan 2,3-dioxygenase (TDO) enzyme assay. The class given is biochemical. The conditions noted are these: for inhibition at 10 µM: hTDO enzyme at 10.0 μM concentration; for inhibition at 1 µM: hTDO enzyme at 1.0 μM concentration. The method, boiled down:
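N-His-tagged hTDO expressed in E. coli (125 ng) incubated with 200 μM L-tryptophan, 100 mM sodium phosphate pH 7.0, 0.01% Tween-20, 100 μM ascorbate, 60 min at 37 °C. Product converted with 200 mM piperidine (65 °C, 20 min) to NFK-PIP, fluorescence 400/500 nm; IC50 by nonlinear regression.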

The target of assay [2] is T2, human indoleamine 2,3-dioxygenase 1 (hIDO1) (Homo sapiens, UniProt P14902).
T2 construct: His tag (N); purchased BPS Bioscience, San Diego, Calif., USA; host or cells: E. coli
T2 sequence (P14902 whole entry): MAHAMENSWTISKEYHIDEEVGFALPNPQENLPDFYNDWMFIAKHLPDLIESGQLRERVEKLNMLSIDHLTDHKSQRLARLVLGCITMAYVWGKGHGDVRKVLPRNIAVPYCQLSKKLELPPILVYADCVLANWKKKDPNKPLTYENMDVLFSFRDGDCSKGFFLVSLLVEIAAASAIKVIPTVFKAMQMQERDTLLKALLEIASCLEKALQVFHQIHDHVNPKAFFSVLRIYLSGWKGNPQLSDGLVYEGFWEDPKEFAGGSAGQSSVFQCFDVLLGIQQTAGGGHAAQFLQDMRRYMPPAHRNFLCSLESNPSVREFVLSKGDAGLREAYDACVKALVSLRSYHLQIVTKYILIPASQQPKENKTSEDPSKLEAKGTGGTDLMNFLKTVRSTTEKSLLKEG
Briefly: In-vitro human indoleamine 2,3-dioxygenase 1 (IDO1) enzyme assay. The conditions noted are these: for IC50: hIDO1 enzyme; for inhibition at 10 µM: hIDO1 enzyme at 10.0 μM concentration; for inhibition at 1 µM: hIDO1 enzyme at 1.0 μM concentration. The class given is biochemical. The method, boiled down:
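His-tagged hIDO1 (E. coli, 50 ng) incubated with 80 μM tryptophan, 10 mM ascorbate, 10 μM methylene blue, catalase and 0.01% Tween-20 in 50 mM sodium phosphate pH 6.5, 60 min, 37 °C. Piperidine converts N-formylkynurenine to fluorescent NFK-PIP (ex 400/em 500 nm); IC50 by nonlinear regression.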

T1 sequence (P48775 whole entry): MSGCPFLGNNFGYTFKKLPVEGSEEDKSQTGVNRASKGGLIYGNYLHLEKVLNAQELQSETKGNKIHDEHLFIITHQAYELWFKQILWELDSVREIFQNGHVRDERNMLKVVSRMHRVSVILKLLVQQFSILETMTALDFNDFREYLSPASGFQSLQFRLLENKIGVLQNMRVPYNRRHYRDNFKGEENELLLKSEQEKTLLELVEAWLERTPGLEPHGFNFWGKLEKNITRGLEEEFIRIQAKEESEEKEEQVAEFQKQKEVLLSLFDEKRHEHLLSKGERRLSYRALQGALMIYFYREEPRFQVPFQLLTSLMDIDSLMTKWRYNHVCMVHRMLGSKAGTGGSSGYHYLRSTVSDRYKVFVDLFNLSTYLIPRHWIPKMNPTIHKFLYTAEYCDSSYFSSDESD

Consider `CC1=C(c2ccccc2)C(CC(O)c2ccccc2)n2cncc21` (centres unmarked) [Example 12, 2-(7-Methyl-6-phenyl-5H-pyrrolo[1,2-c]imidazol-5-yl)-1-phenyl-ethanol], for which the inhibition (in general, the percentage by which the read-out fell short of the control) at 10 µM in assay [1] was not below 50%. Moreover, in assay [2], the IC50 (as a rule, the point on the concentration scale where inhibition reaches its midpoint) is more than 500 nM and the inhibition at 10 µM was not below 50%.

Turning to `CC1=C(c2ccccc2)C(CC(O)[C@H]2CC[C@H](C(=O)N[C@H]3CC[C@H](O)CC3)CC2)n2cncc21` (some centres unmarked) [Example 129], in assay [1], the inhibition at 1 µM is not below 50%. In assay [2], this compound yielded a half-maximal inhibitory concentration (IC50) of more than 500 nM, an inhibition at 1 µM not below 50% and an inhibition at 10 µM not below 50%.

Regarding `CC1=C(c2ccccc2)C(CC(=O)C2CCOCC2)n2cncc21` (centres unmarked) [Example 100], the inhibition at 1 µM in assay [1] was not below 50%. In assay [2], this compound gave an inhibition at 1 µM not above 50% and an inhibition at 10 µM not below 50%.

As to `OC(CC1C2=C(CCCC2)c2cncn21)c1cc(F)ccc1F` (centres unmarked) [Example 10], the inhibition at 10 µM in assay [1] is not below 50%; in assay [2], not above 50%.

On to `COc1ccccc1C(=O)CC1C(c2ccccc2)=C(C)c2cncn21` (centres unmarked) [Example 32, 1-(2-methoxyphenyl)-2-(7-methyl-6-phenyl-5H-pyrrolo[1,2-c]imidazol-5-yl)ethan-1-one], for which, in assay [1], the inhibition at 10 µM is not below 50%. In assay [2], this compound displayed an inhibition at 1 µM not above 50% and an inhibition at 10 µM not above 50%.

On to `COC(=O)c1ccc(C(=O)CC2C(c3ccccc3)=C(C)c3cncn32)cc1` (centres unmarked) [Example 18, 4-[2-(7-Methyl-6-phenyl-5H-pyrrolo[1,2-c]imidazol-5-yl)-acetyl]-benzoic acid methyl ester], for which, in assay [1], the inhibition at 1 µM was not below 50% and the inhibition at 10 µM was not below 50%. In assay [2], this compound yielded a 50% inhibitory concentration (IC50) of less than 500 nM, an inhibition at 1 µM not below 50% and an inhibition at 10 µM not below 50%.

`CC1=C(c2ccccc2)C(CC(=O)c2ccc(-c3ccccc3)cc2)n2cncc21` (centres unmarked) [Example 41, 1-([1,1′-biphenyl]-4-yl)-2-(7-methyl-6-phenyl-5H-pyrrolo[1,2-c]imidazol-5-yl)ethan-1-one] showed an inhibition at 1 µM in assay [1] not below 50%. In assay [2], this compound returned an IC50 of less than 500 nM, an inhibition at 1 µM not below 50% and an inhibition at 10 µM not below 50%.

In assay [1], `CC1=C(c2ccccc2)C(CC(=O)C2CC2)n2cncc21` (centres unmarked) [Example 26, 1-Cyclopropyl-2-(7-methyl-6-phenyl-5H-pyrrolo[1,2-c]imidazol-5-yl)-ethanone] showed an inhibition at 1 µM not below 50% and an inhibition at 10 µM not below 50%. In addition, in assay [2], the inhibition at 1 µM is not above 50% and the inhibition at 10 µM is not below 50%.

With `CC1=C(c2ccccc2)C(CC(=O)c2ccc(C(=O)Nc3ccccc3)cc2)n2cncc21` (centres unmarked) [Example 77], the inhibition at 1 µM in assay [1] was not below 50%. Also, in assay [2], the IC50 is less than 500 nM, the inhibition at 1 µM is not below 50% and the inhibition at 10 µM was not below 50%.

In assay [1], `CC1=C(c2ccccc2)C(CC(O)C2CCN(C(=O)Nc3ccccn3)CC2)n2cncc21` (centres unmarked) [Example 167] gave an inhibition at 1 µM not above 50%. In assay [2], the IC50 was less than 500 nM, the inhibition at 1 µM is not below 50% and the inhibition at 10 µM is not below 50%.

In the case of `CC1=C(c2ccccc2F)C(CC(=O)C2CCCCC2)n2cncc21` (centres unmarked) [Example 101], the inhibition at 1 µM in assay [1] was not below 50%. Besides, in assay [2], the inhibition at 1 µM is not above 50% and the inhibition at 10 µM is not below 50%.

For the compound `CC1=C(c2ccccc2)C(CC(O)C2CCN(C(=O)c3ccccn3)CC2)n2cncc21` (centres unmarked) [Example 152], the inhibition at 1 µM in assay [1] was not above 50%. In assay [2], this compound gave an IC50 of more than 500 nM, an inhibition at 1 µM not above 50% and an inhibition at 10 µM not below 50%.

Turning to `CC1=C(c2ccccc2)C(C[C@@H](O)C2CCCN2S(=O)(=O)c2ccc(C)cc2)n2cncc21` (some centres unmarked) [Example 114], the inhibition at 1 µM was not below 50% in assay [1] and not above 50% in assay [2]. The same compound gave an inhibition at 10 µM in assay [2] not below 50%.

In the case of `CC1=C(c2ccccc2)C(CC(O)C2CCN(C(=O)C3CCCCC3)CC2)n2cncc21` (centres unmarked) [Example 149], the inhibition at 1 µM in assay [1] is not above 50%. In assay [2], the IC50 was less than 500 nM, the inhibition at 1 µM was not below 50% and the inhibition at 10 µM was not below 50%.
